# Laboratory results published in ChEMBL document CHEMBL2202954, “The effect of PLC-γ2 inhibitors on the growth of human tumour cells” (2012).
# Tests used:
# Type in all cases: functional
# [1] = test system: T47D; assay: Cytotoxicity against human T47D cells assessed as cellular growth at 10 uM by SRB assay
# [2] = test system: BT-549; assay: Cytotoxicity against human BT549 cells assessed as cellular growth at 10 uM by SRB assay
# [3] = test system: MCF7; assay: Cytotoxicity against human MCF7 cells assessed as cellular growth at 10 uM by SRB assay
# [4] = test system: DU-145; assay: Cytotoxicity against human DU145 cells assessed as cellular growth at 10 uM by SRB assay
# [5] = test system: PC-3; assay: Cytotoxicity against human PC3 cells assessed as cellular growth at 10 uM by SRB assay
# [6] = test system: SN12C; assay: Cytotoxicity against human SN12C cells assessed as cellular growth at 10 uM by SRB assay
# [7] = test system: 786-0; assay: Cytotoxicity against human 786-0 cells assessed as cellular growth at 10 uM by SRB assay
# [8] = test system: OVCAR-4; assay: Cytotoxicity against human OVCAR4 cells assessed as cellular growth at 10 uM by SRB assay
# [9] = test system: OVCAR-5; assay: Cytotoxicity against human OVCAR5 cells assessed as cellular growth at 10 uM by SRB assay
# [10] = test system: UACC-62; assay: Cytotoxicity against human UACC62 cells assessed as cellular growth at 10 uM by SRB assay
# [11] = test system: SK-MEL-5; assay: Cytotoxicity against human SK-MEL-5 cells assessed as cellular growth at 10 uM by SRB assay
# [12] = test system: SF-295; assay: Cytotoxicity against human SF295 cells assessed as cellular growth at 10 uM by SRB assay
# [13] = test system: HCT-15; assay: Cytotoxicity against human HCT15 cells assessed as cellular growth at 10 uM by SRB assay
# [14] = test system: HCC 2998; assay: Cytotoxicity against human HCC2998 cells assessed as cellular growth at 10 uM by SRB assay
# [15] = test system: NCI-H522; assay: Cytotoxicity against human NCI-H522 cells assessed as cellular growth at 10 uM by SRB assay
# [16] = test system: NCI-H322M; assay: Cytotoxicity against human NCI-H322M cells assessed as cellular growth at 10 uM by SRB assay
# [17] = test system: NCI-H23; assay: Cytotoxicity against human NCI-H23 cells assessed as cellular growth at 10 uM by SRB assay
# [18] = test system: HOP-92; assay: Cytotoxicity against human HOP92 cells assessed as cellular growth at 10 uM by SRB assay
# [19] = test system: RPMI-8226; assay: Cytotoxicity against human RPMI8226 cells assessed as cellular growth at 10 uM by SRB assay
# [20] = test system: SR; assay: Cytotoxicity against human SR cells assessed as cellular growth at 10 uM by SRB assay
Compound,Activity [1],Activity [2],Activity [3],Activity [4],Activity [5],Activity [6],Activity [7],Activity [8],Activity [9],Activity [10],Activity [11],Activity [12],Activity [13],Activity [14],Activity [15],Activity [16],Activity [17],Activity [18],Activity [19],Activity [20]
O=C1N=C(c2ccccc2)S/C1=C\c1ccc2c(c1)OCO2,94.58%,108.62%,101.6%,102.97%,85.65%,94.15%,100.46%,100.96%,92.58%,91.01%,96.34%,97.51%,101.73%,118.49%,105.96%,108.21%,114.7%,71.22%,92.67%,
COc1cc(/C=c2/sc3nc4ccccc4n3c2=O)cc(I)c1O,82.96%,102.32%,93.11%,102.39%,95.27%,101.23%,97.48%,96.8%,102.12%,79.91%,81.43%,88.17%,91.48%,106.16%,99.27%,109.21%,94.22%,93.81%,74.12%,
N#Cc1ccc(-n2nnc3ccccc32)cc1C#N,86.31%,106.48%,82.05%,93.52%,100.51%,101.03%,99.49%,110.46%,110.44%,94.5%,97.62%,91.5%,99.78%,103.78%,88.08%,111.4%,94%,103.19%,100.67%,
Cc1ccc(NC(=O)c2sc3nc4c(cc3c2N)C(=O)CCC4)c(Br)c1,89.73%,113.85%,96.02%,108.79%,102.4%,94.31%,107.4%,105.66%,105.13%,95.44%,92.03%,91.32%,103.46%,102.39%,103.96%,103.11%,102.24%,107.03%,109.86%,
O=C(NCCc1ccc(Cl)cc1)c1[nH]c2ccccc2c1Cl,81.02%,111.29%,78.35%,101.11%,88.9%,97.33%,106.07%,89.13%,117.9%,81.86%,95.47%,98.05%,101.72%,102.32%,101.96%,106.64%,92.75%,81.73%,96.69%,
O=C(NCCc1ccccc1)c1[nH]c2ccccc2c1Cl,71.67%,91.75%,83.19%,91.9%,70.3%,97.03%,102.69%,82.6%,104.54%,84.19%,82.39%,82.28%,86.01%,101.44%,96.12%,98.86%,84.26%,72.64%,71.07%,
Cc1c(OCC(=O)c2ccccc2)ccc2c1oc(=O)c1ccccc12,94.27%,120.42%,102.82%,106.9%,90%,101.41%,104.87%,106.31%,108.12%,98.05%,97.8%,99.54%,107.13%,117.13%,110.46%,115.03%,109.71%,103.71%,107.85%,
Nc1c(C(=O)Nc2ccccc2F)sc2nc3c(cc12)C(=O)CCC3,40.19%,59.83%,22.91%,8.4%,23.38%,49.76%,41.5%,,71.12%,23.7%,17.91%,3.17%,40.21%,43.8%,-15.17%,68.76%,42.84%,53.65%,52.02%,36.7%
O=S(=O)(Oc1ccc(-c2cnc3ccccc3n2)cc1)c1ccc2ccccc2c1,91.09%,122.04%,103.49%,104.01%,87.31%,92.04%,96.4%,,109.35%,82.67%,84.35%,102.68%,115.04%,107.48%,86.38%,137.19%,100.37%,101.74%,89.09%,93.61%
CC1(C)CCc2cc(-c3ccn(S(=O)(=O)c4ccc(Cl)cc4)n3)ccc2O1,54.12%,88.83%,71.27%,88.3%,56.8%,72.79%,71.44%,,100.71%,75.03%,47.2%,78.68%,91.33%,94.3%,66.19%,94.19%,65.48%,8%,52.06%,45.51%
COc1ccc(S(=O)(=O)n2ccc(-c3ccc4c(c3)CCC(C)(C)O4)n2)cc1,46.7%,65.47%,73.48%,,78.05%,97.48%,67.61%,52.32%,108.8%,50.48%,42.57%,47.66%,97.58%,88.92%,55.57%,101%,59.58%,61.38%,49.25%,
